Experimental data as given in ChEMBL document CHEMBL3352151, “In vitro and in vivo antibacterial evaluation and mechanistic study of ornithine based small cationic lipopeptides against antibiotic resistant clinical isolates” (Eur J Med Chem, 2014).
Converted amounts (≈) assume the structure as drawn. The source made the active and inactive calls. No cut-off for these calls is given here.

What was measured:
[1] = test system: Escherichia coli; test: Antibacterial activity against Escherichia coli PGI/DML02292 infected in Swiss albino mouse assessed as log reduction at 10 mg/kg administered at 1 hr post infection relative to control; type: functional
[2] = test system: Enterococcus faecium; test: Antibacterial activity against clinical isolates of Enterococcus faecium GMCH/B0102 after overnight incubation by microdilution broth assay; type: functional
[3] = test system: Mus musculus; test: Toxicity in albino mouse assessed as piloerection at 75 mg/kg, iv measured for 14 days; type: organism-based; set-up: dose 75 mg/kg, route intravenous; settings: in vivo, 336 h
[4] = test system: Staphylococcus aureus; test: Antibacterial activity against Staphylococcus aureus PGI/DML03149 infected in Swiss albino mouse assessed as log reduction at 3 mg/kg administered twice at 1 hr and 5 hrs post infection relative to control; type: functional
[5] = Toxicity in albino mouse assessed as mortality at 150 mg/kg, iv; type: organism-based; set-up: dose 150 mg/kg, route intravenous; settings: in vivo
[6] = test system: Staphylococcus aureus; test: Antibacterial activity against Staphylococcus aureus PGI/DML03149 infected in Swiss albino mouse assessed as log reduction at 1 mg/kg administered twice at 1 hr and 5 hrs post infection relative to control; type: functional
[7] = Toxicity in albino mouse assessed as mortality at 120 mg/kg, iv; type: organism-based; set-up: dose 120 mg/kg, route intravenous; settings: in vivo
[8] = test system: Mus musculus; test: Toxicity in albino mouse assessed as mortality latency at 75 mg/kg, iv; type: organism-based; set-up: dose 75 mg/kg, route intravenous; settings: in vivo
[9] = Membrane permeabilization activity assessed as release of calcein from liposomes at 1:10 lipopeptide:lipid molar ratio after 5 mins by fluorescence assay
[10] = test system: Escherichia coli; test: Antibacterial activity against clinical isolates of imipenem-resistant Escherichia coli PGI/DML02292 after overnight incubation by microdilution broth assay; type: functional
[11] = test system: Escherichia coli; test: Antibacterial activity against Escherichia coli PGI/DML02292 infected in Swiss albino mouse assessed as log reduction at 3 mg/kg administered twice at 1 hr and 5 hrs post infection relative to control; type: functional
[12] = test system: Mus musculus; test: (§1) Toxicity in iv dosed albino mouse; type: organism-based; settings: in vivo
[13] = as §1; type: organism-based; settings: in vivo
[14] = test system: Klebsiella pneumoniae; test: Antibacterial activity against clinical isolates of kanamycin-resistant Klebsiella pneumoniae GMCH/R-Kan006 after overnight incubation by microdilution broth assay; type: functional
[15] = test system: Enterococcus faecalis; test: Antibacterial activity against clinical isolates of Enterococcus faecalis GMCH/B0091 after overnight incubation by microdilution broth assay; type: functional
[16] = test system: Mus musculus; test: Toxicity in albino mouse assessed as mortality latency at 45 mg/kg, iv; type: organism-based; set-up: dose 45 mg/kg, route intravenous; settings: in vivo
[17] = test system: Escherichia coli; test: Antibacterial activity against Escherichia coli PGI/DML02292 infected in Swiss albino mouse assessed as log reduction at 5 mg/kg administered twice at 1 hr and 5 hrs post infection relative to control; type: functional
[18] = test system: Staphylococcus aureus; test: Antibacterial activity against Staphylococcus aureus PGI/DML03149 infected in Swiss albino mouse assessed as log reduction at 5 mg/kg administered twice at 1 hr and 5 hrs post infection relative to control; type: functional
[19] = test system: Escherichia coli; test: Binding affinity to Escherichia coli PGI/DML02292 DNA at 12 ug/ml after 1 hr by agarose gel electrophoresis
[20] = test system: Mus musculus; test: Toxicity in albino mouse assessed as syncope at 90 to 150 mg/kg, iv measured for 14 days; type: organism-based; set-up: dose 90-150 mg/kg, route intravenous; settings: in vivo, 336 h
[21] = Toxicity in albino mouse assessed as mortality at 90 mg/kg, iv; type: organism-based; set-up: dose 90 mg/kg, route intravenous; settings: in vivo
[22] = test system: Staphylococcus aureus; test: Antibacterial activity against clinical isolates of Staphylococcus aureus PGI/DML03054 after overnight incubation by microdilution broth assay; type: functional
[23] = Toxicity in albino mouse assessed as mortality at 30 mg/kg, iv; type: organism-based; set-up: dose 30 mg/kg, route intravenous; settings: in vivo
[24] = test system: Haemophilus influenzae; test: Antibacterial activity against clinical isolates of Haemophilus influenzae PGI/DML01751 after overnight incubation by microdilution broth assay; type: functional
[25] = test system: Escherichia coli; test: Antibacterial activity against Escherichia coli PGI/DML02292 infected in Swiss albino mouse assessed as log reduction at 1 mg/kg administered twice at 1 hr and 5 hrs post infection relative to control; type: functional
[26] = test system: Staphylococcus aureus; test: Antibacterial activity against Staphylococcus aureus PGI/DML03149 infected in Swiss albino mouse assessed as log reduction at 10 mg/kg administered […] at 1 hr post infection relative to control; type: functional
[27] = Toxicity in albino mouse assessed as mortality at 45 mg/kg, iv; type: organism-based; set-up: dose 45 mg/kg, route intravenous; settings: in vivo
[28] = test system: Mus musculus; test: Toxicity in albino mouse assessed as anorexia at 45 to 150 mg/kg, iv measured for 14 days; type: organism-based; set-up: dose 45-150 mg/kg, route intravenous; settings: in vivo, 336 h
[29] = test system: Staphylococcus aureus; test: Antibacterial activity against clinical isolates of methicillin-resistant Staphylococcus aureus PGI/DML03149 after overnight incubation by microdilution broth assay; type: functional
[30] = test system: Staphylococcus epidermidis; test: Antibacterial activity against clinical isolates of ampicillin-resistant Staphylococcus epidermidis GMCH/R-Amp008 after overnight incubation by microdilution broth assay; type: functional
[31] = test system: Mus musculus; test: Toxicity in albino mouse assessed as mortality latency at 60 mg/kg, iv; type: organism-based; set-up: dose 60 mg/kg, route intravenous; settings: in vivo
[32] = test system: Enterococcus faecium; test: Antibacterial activity against clinical isolates of penicillin-resistant Enterococcus faecium GMCH/R-Pen003 after overnight incubation by microdilution broth assay; type: functional
[33] = test system: Mus musculus; test: Toxicity in albino mouse assessed as hypoactivity at 45 to 75 mg/kg, iv measured for 14 days; type: organism-based; set-up: dose 45-75 mg/kg, route intravenous; settings: in vivo, 336 h
[34] = Toxicity in albino mouse assessed as mortality at 60 mg/kg, iv; type: organism-based; set-up: dose 60 mg/kg, route intravenous; settings: in vivo
[35] = Toxicity in albino mouse assessed as mortality at 15 mg/kg, iv; type: organism-based; set-up: dose 15 mg/kg, route intravenous; settings: in vivo
[36] = test system: Escherichia coli; test: Induction of membrane damage in Escherichia coli PGI/DML02292 at 9 ug/ml after 30 mins by propidium iodide staining-based flow cytometry relative to control; type: functional
[37] = test system: Mus musculus; test: Toxicity in albino mouse assessed as mortality latency at 150 mg/kg, iv; type: organism-based; set-up: dose 150 mg/kg, route intravenous; settings: in vivo
[38] = test system: Haemophilus influenzae; test: Antibacterial activity against clinical isolates of ciprofloxacin-resistant Haemophilus influenzae PGI/DML01744 after overnight incubation by microdilution broth assay; type: functional
[39] = Toxicity in albino mouse assessed as mortality at 1 mg/kg, iv; type: organism-based; set-up: dose 1 mg/kg, route intravenous; settings: in vivo
[40] = test system: Streptococcus pneumoniae; test: Antibacterial activity against clinical isolates of erythromycin-resistant Streptococcus pneumoniae PGI/DML02213 after overnight incubation by microdilution broth assay; type: functional
[41] = Cytotoxicity against human HaCaT cells assessed as cell viability at 100 ug/ml after 18 hrs by MTT assay; type: cell-based; settings: read-out: Activity
[42] = Cytotoxicity against human HaCaT cells assessed as cell viability at 500 ug/ml after 18 hrs by MTT assay; type: cell-based; settings: read-out: Activity
[43] = test system: Streptococcus pneumoniae; test: Antibacterial activity against clinical isolates of Streptococcus pneumoniae PGI/DML02468 after overnight incubation by microdilution broth assay; type: functional
[44] = test system: Mus musculus; test: Toxicity in albino mouse assessed as mortality latency at 120 mg/kg, iv; type: organism-based; set-up: dose 120 mg/kg, route intravenous; settings: in vivo
[45] = test system: Pseudomonas aeruginosa; test: Antibacterial activity against clinical isolates of streptomycin-resistant Pseudomonas aeruginosa PGI/DML01991 after overnight incubation by microdilution broth assay; type: functional
[46] = Membrane permeabilization activity assessed as release of calcein from liposomes at 1:50 lipopeptide:lipid molar ratio after 5 mins by fluorescence assay
[47] = Toxicity in albino mouse assessed as mortality at 5 mg/kg, iv; type: organism-based; set-up: dose 5 mg/kg, route intravenous; settings: in vivo
[48] = test system: Escherichia coli; test: Antibacterial activity against clinical isolates of Escherichia coli PGI/DML02250 after overnight incubation by microdilution broth assay; type: functional

CCCCCCCCCCCCCC(=O)NC(CCCN)C(=O)NC(CCCN)C(=O)NC(CCCN)C(N)=O (stereo unspecified)
FC [1]: 5.41 | MIC [2]: 3.5 µg/mL (≈ 6.14 µM) | Activity [3]: Toxic | FC [4]: 2.8 | mortality [5]: 85% | FC [6]: 0.84 | mortality [7]: 75% | Time [8]: > 120 h | Activity [9]: 91% | MIC [10]: 5.5 µg/mL (≈ 9.65 µM) | FC [11]: 3.83 | LOAEL [12]: 45 mg/kg | MLD [12]: 45 mg/kg | LD50 [13]: 81.3 mg/kg | MTD [13]: 30 mg/kg | NOAEL [13]: 30 mg/kg | MIC [14]: 5.5 µg/mL (≈ 9.65 µM) | MIC [15]: 1.5 µg/mL (≈ 2.63 µM) | Time [16]: > 168 h | FC [17]: 4.96 | FC [18]: 4.15 | Activity [19]: inactive | Activity [20]: Toxic | mortality [21]: 60% | MIC [22]: 2.5 µg/mL (≈ 4.39 µM) | mortality [23]: 0% | MIC [24]: 4.5 µg/mL (≈ 7.9 µM) | FC [25]: 1.08 | FC [26]: 4.59 | mortality [27]: 15% | Activity [28]: Toxic | MIC [29]: 3.1 µg/mL (≈ 5.44 µM) | MIC [30]: 3.1 µg/mL (≈ 5.44 µM) | Time [31]: > 120 h | MIC [32]: 3.1 µg/mL (≈ 5.44 µM) | Activity [33]: Toxic | mortality [34]: 25% | mortality [35]: 0% | Activity [36]: 79% | Time [37]: > 48 h | MIC [38]: 3.1 µg/mL (≈ 5.44 µM) | mortality [39]: 0% | MIC [40]: 4.2 µg/mL (≈ 7.37 µM) | viability at 18 h, 100 ug/ml [41]: 92% | viability at 18 h, 500 ug/ml [42]: 25% | MIC [43]: 4.5 µg/mL (≈ 7.9 µM) | Time [44]: > 48 h | MIC [45]: 2.25 µg/mL (≈ 3.95 µM) | Activity [46]: 51% | mortality [47]: 0% | MIC [48]: 2 µg/mL (≈ 3.51 µM)
